According to US9856262B2, “Analogues of 4H-pyrazolo[1,5-a] benzimidazole compound as PARP inhibitors” (HUBEI BIO-PHARMACEUTICAL INDUSTRIAL TECHNOLOGICAL INSTITUTE …, priority 2014, dated 2018):

How the values were obtained:
HCC1937 cells = assay: Cellular PARylation assay; format: cell-based; details: Homo sapiens; HCC1937 cells, compound 30 min then 1 mM H2O2 10 min; read-out: cellular PARylation EC50
Description: Cellular PARylation Assay
HCC1937 cells were planted into 96 well plates at 4×10^4 cells/well and incubated at 37° C. in an incubator overnight. After being treated with a test compound for 30 min, cells were then treated with 1 mM H2O2 for 10 min. The cells were washed with 200 ul pre-chilled PBS twice and fixed with 100 ul pre-chilled methanol/acetone (7:3) on ice for 30 min. After being air-dried, the plates were blocked using PBS-Tween blocking solution (0.05%) with dissolved 5% nonfat dry milk for 30 min at room temperature. The cells were incubated with anti-PAR antibody 10H (1:100) at room temperature for 1 hour followed by washing with PBS-Tween20 for 3 times; and then added into a blocking solution including goat anti-mouse fluorescein isothiocyanate (FITC)-coupled secondary antibody and 1 μg/mL DAPI to incubate away from light at room temperature for 1 hour. After being washed with PBS-Tween20 for 3 times, the plate was analyzed with a fluorescence microplate counter (Flexstation III, Molecular Device).

PARP-1 = molecular target: T1, PARP-1 (Homo sapiens, UniProt P09874); assay: PARP enzymatic assay (HT Universal Colorimetric PARP1 Assay Kit); format: biochemical; details: read-out: PARP-1 enzymatic inhibition IC50
T1 construct: purchased
Description: PARP Enzymatic Assay (Following the Manual of HT Universal Colorimetric PARP1 Assay Kit).
Histone proteins were coated on a 96-well plate and incubated overnight at 4° C. After be washed 3 times with 200 ul PBST solution, the plate was blocked with a blocking solution and incubated for 30 min at room temperature, and then washed with PBST solution 3 times. A compound to be tested was treated and added to the plate. Thereafter, 20 μl of diluted PARP1 (1 nM) or 20 μl of PARP2 (3 nM) solution was added into the reaction system and incubated for 1 or 2 hours. 50 ul of streptavidin-HRP mixture (1:50) was added into the plate and incubated for 30 min at room temperature. The plate was then washed with three times with PBST buffer. 100 μl of (HRP) (Chemiluminescent substrate A and substrate B (1:1)) was added into the plate, and the plate was immediately read on a microplate reader (Envision, PerkinElmer).

T1 sequence (P09874 whole entry): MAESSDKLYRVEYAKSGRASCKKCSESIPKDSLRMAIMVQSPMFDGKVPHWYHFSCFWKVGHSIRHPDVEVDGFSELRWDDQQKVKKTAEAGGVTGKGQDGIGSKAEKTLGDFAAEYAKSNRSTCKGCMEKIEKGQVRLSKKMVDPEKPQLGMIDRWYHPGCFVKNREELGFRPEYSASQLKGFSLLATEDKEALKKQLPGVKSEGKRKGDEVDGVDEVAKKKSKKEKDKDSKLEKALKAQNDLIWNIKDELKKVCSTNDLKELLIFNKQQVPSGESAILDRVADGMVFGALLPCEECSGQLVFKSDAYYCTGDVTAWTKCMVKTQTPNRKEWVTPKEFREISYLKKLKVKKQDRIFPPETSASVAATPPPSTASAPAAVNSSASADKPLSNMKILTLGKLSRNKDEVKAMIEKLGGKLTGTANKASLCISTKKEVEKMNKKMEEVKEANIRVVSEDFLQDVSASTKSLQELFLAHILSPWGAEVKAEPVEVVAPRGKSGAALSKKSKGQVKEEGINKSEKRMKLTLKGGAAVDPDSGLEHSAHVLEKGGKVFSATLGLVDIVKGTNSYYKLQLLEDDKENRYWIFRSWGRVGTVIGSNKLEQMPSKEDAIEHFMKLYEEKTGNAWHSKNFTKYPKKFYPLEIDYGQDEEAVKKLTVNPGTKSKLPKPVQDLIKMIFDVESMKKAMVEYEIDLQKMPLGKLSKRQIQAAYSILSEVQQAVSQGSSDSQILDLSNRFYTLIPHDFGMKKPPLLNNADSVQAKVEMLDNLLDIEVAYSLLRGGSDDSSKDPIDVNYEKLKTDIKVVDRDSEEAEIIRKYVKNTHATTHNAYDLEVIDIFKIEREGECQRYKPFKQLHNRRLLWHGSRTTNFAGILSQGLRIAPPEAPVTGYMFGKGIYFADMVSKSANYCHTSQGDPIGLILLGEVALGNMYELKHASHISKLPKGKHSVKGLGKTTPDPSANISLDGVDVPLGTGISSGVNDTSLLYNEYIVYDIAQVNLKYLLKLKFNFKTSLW

Row | SMILES | EC50 (HCC1937 cells) [nM] | IC50 (PARP-1) [nM]
1 | CCN1CCC(c2cnn3c2[nH]c2cc(F)cc(C(N)=O)c23)CC1 [Example 2, 3-(1-ethylpiperidin-4-yl)-6-fluoro-4H-benzo[4,5]imidazo[1,2-b]pyrazole-8-carboxamide] | 1 to 100 | 1 to 100
2 | CCN1CCCC1c1cnn2c1[nH]c1cc(F)cc(C(N)=O)c12 (stereo not shown) [Example 26, 3-(1-ethylpyrrolidin-2-yl)-6-fluoro-4H-benzo[4,5]imidazo[1,2-b]pyrazole-8-carboxamide] | 101 to 1000 | 1 to 100
3 | CNCc1ccc(-c2cnn3c2[nH]c2cc(F)cc(C(N)=O)c23)c(F)c1 [Example 42, 6-fluoro-3-(2-fluoro-4-((methylamino)methyl)phenyl)-4H-benzo[4,5]imidazo[1,2-b]pyrazole-8-carboxamide] | 101 to 1000 | 1 to 100
4 | NC(=O)c1cc(F)cc2[nH]c3c(C4(CO)CCN(CC5CC5)CC4)cnn3c12 [Example 109, 3-(1-(cyclopropylmethyl)-4-(hydroxymethyl)piperidin-4-yl)-6-fluoro-4H-benzo[4,5]imidazo[1,2-b]pyrazole-8-carboxamide] | 101 to 1000 | 1 to 100
5 | CCOC(=O)C1CC1CN1CCC(C)(c2cnn3c2[nH]c2cc(F)cc(C(N)=O)c23)CC1 (stereo not shown) [Example 80, ethyl 2-((4-(8-carbamoyl-6-fluoro-4H-benzo[4,5]imidazo[1,2-b]pyrazol-3-yl)-4-methylpiperidin-1-yl)methyl)cyclopropanecarboxylate] | 1 to 100 | 1 to 100
6 | CCN1CCCC(c2cnn3c2[nH]c2cc(F)cc(C(N)=O)c23)CC1 (stereo not shown) [Example 18, 3-(1-ethylazepan-4-yl)-6-fluoro-4H-benzo[4,5]imidazo[1,2-b]pyrazole-8-carboxamide] | 1 to 100 | 1 to 100
7 | CN1CCC(c2cnn3c2[nH]c2cc(F)cc(C(N)=O)c23)CC1 [Example 9, 6-fluoro-3-(1-methylpiperidin-4-yl)-4H-benzo[4,5]imidazo[1,2-b]pyrazole-8-carboxamide] | 1 to 100 | 1 to 100
8 | NC(=O)c1cc(F)cc2[nH]c3c(C4CCCN4)cnn3c12 (stereo not shown) [Example 23, 6-fluoro-3-(pyrrolidin-2-yl)-4H-benzo[4,5]imidazo[1,2-b]pyrazole-8-carboxamide] | 1 to 100 | 1 to 100
9 | N#Cc1cnn2c1[nH]c1cccc(C(N)=O)c12 [Example 38, 3-cyano-4H-benzo[4,5]imidazo[1,2-b]pyrazole-8-carboxamide] | > 1000 | 101 to 1000
10 | CC1(c2cnn3c2[nH]c2cc(F)cc(C(N)=O)c23)CCN(CCC#N)C1 (stereo not shown) [Example 103, 3-(1-(2-cyanoethyl)-3-methylpyrrolidin-3-yl)-6-fluoro-4H-benzo[4,5]imidazo[1,2-b]pyrazole-8-carboxamide] | 101 to 1000 | 1 to 100
11 | CCN1CC2CC2(c2cnn3c2[nH]c2cc(F)cc(C(N)=O)c23)C1 (stereo not shown) [Example 29, 3-(3-ethyl-3-azabicyclo[3.1.0]hexan-1-yl)-6-fluoro-4H-benzo[4,5]imidazo[1,2-b]pyrazole-8-carboxamide] | 1 to 100 | 1 to 100
12 | CC(C)(O)CN1CCC(c2cnn3c2[nH]c2cc(F)cc(C(N)=O)c23)CC1 [Example 6, 6-fluoro-3-(1-(2-hydroxy-2-methylpropyl)piperidin-4-yl)-4H-benzo[4,5]imidazo[1,2-b]pyrazole-8-carboxamide] | 1 to 100 | 1 to 100
13 | CC(C)CN1CCC(C)(c2cnn3c2[nH]c2cc(F)cc(C(N)=O)c23)CC1 [Example 82, 6-fluoro-3-(1-isobutyl-4-methylpiperidin-4-yl)-4H-benzo[4,5]imidazo[1,2-b]pyrazole-8-carboxamide] | 1 to 100 | 1 to 100
14 | Cc1nn2c([nH]c3cc(F)cc(C(N)=O)c32)c1C1(C)CCN(CC(C)C)CC1 [Example 113, 6-fluoro-3-(1-isobutyl-4-methylpiperidin-4-yl)-2-methyl-4H-benzo[4,5]imidazo[1,2-b]pyrazole-8-carboxamide] | 1 to 100 | 1 to 100
